Experimental data published in ChEMBL document CHEMBL3885861, “Open TG-GATES”.

Organism: Rattus norvegicus
Test: Open TG-GATES - Regimen: Single
Format: toxicity, organism-based, Sprague-Dawley
Parameters: regimen Single, gender Male, age 6 weeks
Details: in vivo, po, route gavage; for APTT / Bas / Eos / Fbg / Hb / Ht / Lym / MCH / MCHC / MCV / Mono / Neu / PT / Plat / RBC / Ret / WBC: tissue Blood; for LIVER: tissue Liver; for A/G / ALP / ALT / AST / BUN / CRE / Ca / Cl / DBIL / GLC / IP / K / LDH / Na / PL / RALB / TBIL / TC / TG / TP / gamma-GTP: tissue Plasma
[1] = 0 mg/kg, 3 h, dose level Control
[2] = 0 mg/kg, 6 h, dose level Control
[3] = 0 mg/kg, 9 h, dose level Control
[4] = 0 mg/kg, 24 h, dose level Control

## O=[N+]([O-])c1ccc(O)c([N+](=O)[O-])c1 [2,4-DINITROPHENOL]
[1]
  TERMINAL_BW: 200.9 g
  APTT: 15.9 s
  Bas: 0%
  Eos: 0.8%
  Fbg: 241.6 mg/dL
  Hb: 13.2 g/dL
  Ht: 39.5%
  Lym: 74%
  MCH: 21.6 pg
  MCHC: 33.5%
  MCV: 64.4 fL
  Mono: 8.4%
  Neu: 16.8%
  PT: 11.8 s
  Plat: 109.2 x10_4/uL
  RBC: 613.4 x10_4/ul
  Ret: 9.5%
  WBC: 98.2 x10_2/uL
  LIVER: 9.3 g
  A/G: 2.4
  ALP: 1373.4 IU/L
  ALT: 40.8 IU/L
  AST: 69.4 IU/L
  BUN: 11 mg/dL
  CRE: 0.3 mg/dL
  Ca: 11.1 mg/dL
  Cl: 103.6 meq/L
  DBIL: 0.01 mg/dL
  GLC: 175.6 mg/dL
  IP: 9.4 mg/dL
  K: 4.4 meq/L
  LDH: 117.8 IU/L
  Na: 138.6 meq/L
  PL: 150.4 mg/dL
  RALB: 3.7 g/dL
  TBIL: 0.044 mg/dL
  TC: 87.2 mg/dL
  TG: 52.4 mg/dL
  TP: 5.3 g/dL
  gamma-GTP: 0 IU/L
[2]
  TERMINAL_BW: 197.1 g
  APTT: 16.4 s
  Bas: 0%
  Eos: 0.8%
  Fbg: 232 mg/dL
  Hb: 13.4 g/dL
  Ht: 39.8%
  Lym: 77.2%
  MCH: 21.5 pg
  MCHC: 33.6%
  MCV: 63.9 fL
  Mono: 9.6%
  Neu: 12.4%
  PT: 12.2 s
  Plat: 127 x10_4/uL
  RBC: 623.4 x10_4/ul
  Ret: 8.9%
  WBC: 127.4 x10_2/uL
  LIVER: 8.9 g
  A/G: 2.5
  ALP: 1236 IU/L
  ALT: 36.4 IU/L
  AST: 63.4 IU/L
  BUN: 10.4 mg/dL
  CRE: 0.4 mg/dL
  Ca: 10.8 mg/dL
  Cl: 104.8 meq/L
  DBIL: 0.01 mg/dL
  GLC: 191.6 mg/dL
  IP: 9.3 mg/dL
  K: 4.4 meq/L
  LDH: 96.8 IU/L
  Na: 138.8 meq/L
  PL: 135.4 mg/dL
  RALB: 3.9 g/dL
  TBIL: 0.056 mg/dL
  TC: 79.8 mg/dL
  TG: 52.4 mg/dL
  TP: 5.5 g/dL
  gamma-GTP: 0 IU/L
[3]
  TERMINAL_BW: 203.5 g
  APTT: 15.9 s
  Bas: 0%
  Eos: 1%
  Fbg: 234.6 mg/dL
  Hb: 13 g/dL
  Ht: 38.7%
  Lym: 76.2%
  MCH: 22 pg
  MCHC: 33.7%
  MCV: 65.1 fL
  Mono: 8.8%
  Neu: 14.6%
  PT: 12.2 s
  Plat: 117.6 x10_4/uL
  RBC: 595.4 x10_4/ul
  Ret: 9.4%
  WBC: 108 x10_2/uL
  LIVER: 8.7 g
  A/G: 2.5
  ALP: 1123.8 IU/L
  ALT: 32.8 IU/L
  AST: 63.8 IU/L
  BUN: 11.6 mg/dL
  CRE: 0.3 mg/dL
  Ca: 10.9 mg/dL
  Cl: 104.2 meq/L
  DBIL: 0.01 mg/dL
  GLC: 195.2 mg/dL
  IP: 10.4 mg/dL
  K: 4.6 meq/L
  LDH: 109.6 IU/L
  Na: 139.4 meq/L
  PL: 140 mg/dL
  RALB: 3.8 g/dL
  TBIL: 0.044 mg/dL
  TC: 84.6 mg/dL
  TG: 47.8 mg/dL
  TP: 5.4 g/dL
  gamma-GTP: 0.2 IU/L
[4]
  TERMINAL_BW: 219.1 g
  APTT: 16.3 s
  Bas: 0%
  Eos: 1.2%
  Fbg: 228.6 mg/dL
  Hb: 12.7 g/dL
  Ht: 37.5%
  Lym: 72%
  MCH: 21.1 pg
  MCHC: 33.8%
  MCV: 62.5 fL
  Mono: 9.4%
  Neu: 17.8%
  PT: 11.6 s
  Plat: 138.4 x10_4/uL
  RBC: 600 x10_4/ul
  Ret: 8.1%
  WBC: 106.6 x10_2/uL
  LIVER: 10.9 g
  A/G: 2.4
  ALP: 1480.2 IU/L
  ALT: 37.4 IU/L
  AST: 62.4 IU/L
  BUN: 17 mg/dL
  CRE: 0.4 mg/dL
  Ca: 11.4 mg/dL
  Cl: 103.2 meq/L
  DBIL: 0.012 mg/dL
  GLC: 185.6 mg/dL
  IP: 7.6 mg/dL
  K: 4.6 meq/L
  LDH: 84.2 IU/L
  Na: 139 meq/L
  PL: 160.4 mg/dL
  RALB: 3.9 g/dL
  TBIL: 0.034 mg/dL
  TC: 84 mg/dL
  TG: 120.4 mg/dL
  TP: 5.5 g/dL
  gamma-GTP: 0.2 IU/L
6 mg/kg, 3 h, dose level Low
  TERMINAL_BW: 204.4 g
  APTT: 17 s
  Bas: 0%
  Eos: 0.8%
  Fbg: 232 mg/dL
  Hb: 12.9 g/dL
  Ht: 38.5%
  Lym: 74.8%
  MCH: 21.6 pg
  MCHC: 33.5%
  MCV: 64.6 fL
  Mono: 9.6%
  Neu: 14.8%
  PT: 12.2 s
  Plat: 124.6 x10_4/uL
  RBC: 595.6 x10_4/ul
  Ret: 9.1%
  WBC: 105.2 x10_2/uL
  LIVER: 9.7 g
  A/G: 2.4
  ALP: 1437.4 IU/L
  ALT: 38 IU/L
  AST: 69 IU/L
  BUN: 11 mg/dL
  CRE: 0.4 mg/dL
  Ca: 11.2 mg/dL
  Cl: 103.2 meq/L
  DBIL: 0.014 mg/dL
  GLC: 185.2 mg/dL
  IP: 10.4 mg/dL
  K: 4.3 meq/L
  LDH: 110.2 IU/L
  Na: 138.4 meq/L
  PL: 139.8 mg/dL
  RALB: 3.8 g/dL
  TBIL: 0.046 mg/dL
  TC: 79 mg/dL
  TG: 57 mg/dL
  TP: 5.4 g/dL
  gamma-GTP: 0 IU/L
6 mg/kg, 6 h, dose level Low
  TERMINAL_BW: 202.3 g
  APTT: 16.3 s
  Bas: 0%
  Eos: 1%
  Fbg: 252.2 mg/dL
  Hb: 13 g/dL
  Ht: 38.9%
  Lym: 73%
  MCH: 21.3 pg
  MCHC: 33.4%
  MCV: 63.9 fL
  Mono: 10%
  Neu: 16.4%
  PT: 12.1 s
  Plat: 124.2 x10_4/uL
  RBC: 608.6 x10_4/ul
  Ret: 9.3%
  WBC: 116.8 x10_2/uL
  LIVER: 9.2 g
  A/G: 2.4
  ALP: 1588.6 IU/L
  ALT: 35.4 IU/L
  AST: 69.2 IU/L
  BUN: 10.6 mg/dL
  CRE: 0.4 mg/dL
  Ca: 10.9 mg/dL
  Cl: 105.2 meq/L
  DBIL: 0.012 mg/dL
  GLC: 198 mg/dL
  IP: 9.3 mg/dL
  K: 4.4 meq/L
  LDH: 135.6 IU/L
  Na: 139 meq/L
  PL: 154 mg/dL
  RALB: 3.9 g/dL
  TBIL: 0.05 mg/dL
  TC: 92.4 mg/dL
  TG: 61.4 mg/dL
  TP: 5.6 g/dL
  gamma-GTP: 0 IU/L
6 mg/kg, 9 h, dose level Low
  TERMINAL_BW: 199.2 g
  APTT: 15.6 s
  Bas: 0%
  Eos: 1%
  Fbg: 244.6 mg/dL
  Hb: 12.9 g/dL
  Ht: 38.5%
  Lym: 72%
  MCH: 21.7 pg
  MCHC: 33.5%
  MCV: 64.7 fL
  Mono: 12.8%
  Neu: 14.4%
  PT: 11.9 s
  Plat: 125.6 x10_4/uL
  RBC: 595 x10_4/ul
  Ret: 8.8%
  WBC: 87.8 x10_2/uL
  LIVER: 8.6 g
  A/G: 2.5
  ALP: 1398.6 IU/L
  ALT: 31.4 IU/L
  AST: 66.2 IU/L
  BUN: 11.4 mg/dL
  CRE: 0.4 mg/dL
  Ca: 11 mg/dL
  Cl: 104.4 meq/L
  DBIL: 0.01 mg/dL
  GLC: 191.4 mg/dL
  IP: 10.7 mg/dL
  K: 4.9 meq/L
  LDH: 145 IU/L
  Na: 138.4 meq/L
  PL: 157.4 mg/dL
  RALB: 3.9 g/dL
  TBIL: 0.046 mg/dL
  TC: 93.2 mg/dL
  TG: 57.6 mg/dL
  TP: 5.5 g/dL
  gamma-GTP: 0.2 IU/L
6 mg/kg, 24 h, dose level Low
  TERMINAL_BW: 220.4 g
  APTT: 15.9 s
  Bas: 0%
  Eos: 1.4%
  Fbg: 237.4 mg/dL
  Hb: 12.8 g/dL
  Ht: 38.4%
  Lym: 72.8%
  MCH: 21.6 pg
  MCHC: 33.4%
  MCV: 64.8 fL
  Mono: 10.4%
  Neu: 15.6%
  PT: 11.6 s
  Plat: 131.6 x10_4/uL
  RBC: 593.2 x10_4/ul
  Ret: 7.8%
  WBC: 107.2 x10_2/uL
  LIVER: 11.3 g
  A/G: 2.5
  ALP: 1262 IU/L
  ALT: 38.8 IU/L
  AST: 64.8 IU/L
  BUN: 14.8 mg/dL
  CRE: 0.4 mg/dL
  Ca: 11.3 mg/dL
  Cl: 103.2 meq/L
  DBIL: 0.012 mg/dL
  GLC: 193.6 mg/dL
  IP: 7.3 mg/dL
  K: 4.6 meq/L
  LDH: 105 IU/L
  Na: 139.4 meq/L
  PL: 159.6 mg/dL
  RALB: 4 g/dL
  TBIL: 0.034 mg/dL
  TC: 90 mg/dL
  TG: 116 mg/dL
  TP: 5.6 g/dL
  gamma-GTP: 0.4 IU/L
